Data on twelve compounds can be found in ChEMBL document CHEMBL3425442, “Tetrahydroindazoles as Interleukin-2 Inducible T-Cell Kinase Inhibitors. Part II. Second-Generation Analogues with Enhanced Potency, Selectivity, and Pharmacodynamic Modulation in Vivo” (J Med Chem, 2015).

≈ marks a conversion by molar mass, not a printed value. Where “and” joins values, the source holds several entries; their conditions need not be identical. Equal entries are not always repeated.

A short description of data set [1]: 1-octanol-phosphate buffer partition coefficient, log D of the compound at pH 7.4 by UPLC/MS/MS analysis.
The nature of data set [2]: Cytotoxicity against human Jurkat T cells without TCR stimulation assessed as cell viability by ATPlite assay.
The subject of another data set is Hepatocyte. The data set can be described thus: Cytotoxicity against hepatocytes (unknown origin).
A further data set in a line: physchem. As to conditions: aqueous phosphate buffer, pH 7.4, Kinetic_solubility.
Data set [3] is described as follows: Plasma protein binding in human. In kind it is ADME, cell-free. As to conditions: read-out: PPB (converted).
A short description of data set [4]: Permeability in MDCK cells. In kind it is ADME, cell-based, Canis lupus familiaris. As to conditions: dog, read-out: permeability.
The target in a further data set is hERG (KCNH2) (Homo sapiens, UniProt Q12809). The data set can be described thus: Inhibition of human ERG at 10 uM by patch clamp assay relative to control. (In general: The patch-clamp technique gives a direct electrical read-out from membranes.)
Chain of hERG (KCNH2) (Q12809 whole entry): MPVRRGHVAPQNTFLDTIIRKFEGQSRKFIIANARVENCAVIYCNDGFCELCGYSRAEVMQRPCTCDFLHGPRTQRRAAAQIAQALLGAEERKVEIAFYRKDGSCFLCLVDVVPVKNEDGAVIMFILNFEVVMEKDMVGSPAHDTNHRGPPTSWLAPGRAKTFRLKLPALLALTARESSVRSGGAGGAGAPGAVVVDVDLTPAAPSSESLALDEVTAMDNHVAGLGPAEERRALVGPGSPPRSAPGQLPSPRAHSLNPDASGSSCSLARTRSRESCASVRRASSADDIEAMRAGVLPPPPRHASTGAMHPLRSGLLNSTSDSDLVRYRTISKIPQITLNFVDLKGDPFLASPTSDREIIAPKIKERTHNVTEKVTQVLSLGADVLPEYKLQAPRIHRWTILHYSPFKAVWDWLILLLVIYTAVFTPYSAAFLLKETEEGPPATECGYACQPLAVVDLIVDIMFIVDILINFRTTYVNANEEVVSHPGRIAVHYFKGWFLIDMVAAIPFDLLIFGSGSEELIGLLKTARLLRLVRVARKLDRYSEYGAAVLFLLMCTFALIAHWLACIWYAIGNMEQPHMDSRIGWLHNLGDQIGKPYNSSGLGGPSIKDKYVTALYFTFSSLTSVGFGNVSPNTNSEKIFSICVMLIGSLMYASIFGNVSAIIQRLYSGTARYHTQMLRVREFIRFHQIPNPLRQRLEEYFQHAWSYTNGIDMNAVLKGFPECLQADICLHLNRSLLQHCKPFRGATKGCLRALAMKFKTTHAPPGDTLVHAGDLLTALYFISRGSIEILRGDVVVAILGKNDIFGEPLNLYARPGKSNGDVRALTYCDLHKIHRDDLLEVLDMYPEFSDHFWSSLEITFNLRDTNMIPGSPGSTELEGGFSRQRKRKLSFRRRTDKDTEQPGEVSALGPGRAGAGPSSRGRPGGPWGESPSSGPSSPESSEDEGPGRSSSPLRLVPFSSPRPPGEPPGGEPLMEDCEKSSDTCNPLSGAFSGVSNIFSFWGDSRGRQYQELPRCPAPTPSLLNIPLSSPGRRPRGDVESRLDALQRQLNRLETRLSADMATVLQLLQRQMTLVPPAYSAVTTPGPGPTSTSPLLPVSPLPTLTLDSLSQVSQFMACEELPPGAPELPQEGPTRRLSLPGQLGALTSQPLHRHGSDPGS
The target in data set [5] is Tyrosine-protein kinase Lck (Homo sapiens, UniProt P06239). The data set can be described thus: Inhibition of LCK (unknown origin).
Chain of Tyrosine-protein kinase Lck (P06239 whole entry): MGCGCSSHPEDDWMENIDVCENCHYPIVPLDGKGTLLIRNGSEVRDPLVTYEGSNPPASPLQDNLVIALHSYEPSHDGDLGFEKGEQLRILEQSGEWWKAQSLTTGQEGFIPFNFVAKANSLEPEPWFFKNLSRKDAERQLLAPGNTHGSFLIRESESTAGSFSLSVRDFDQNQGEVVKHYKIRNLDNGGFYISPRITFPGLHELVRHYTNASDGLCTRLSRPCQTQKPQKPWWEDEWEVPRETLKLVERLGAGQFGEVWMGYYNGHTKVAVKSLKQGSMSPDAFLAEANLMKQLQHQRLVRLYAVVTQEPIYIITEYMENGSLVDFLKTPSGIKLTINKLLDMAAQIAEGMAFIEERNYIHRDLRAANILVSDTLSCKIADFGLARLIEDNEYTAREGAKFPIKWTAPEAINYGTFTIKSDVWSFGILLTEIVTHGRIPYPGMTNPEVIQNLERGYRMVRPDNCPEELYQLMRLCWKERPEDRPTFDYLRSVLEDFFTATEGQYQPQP
The species named for data set [6] is Homo sapiens. The data set can be described thus: Selectivity ratio of Ki for LCK (unknown origin) to Ki for GST-tagged recombinant full length human ITK.
In data set [7] the target is D(2) dopamine receptor (Homo sapiens) (UniProt P14416). The data set can be described thus: Binding affinity to human dopamine D2S receptor assessed as protein-compound complex at 10 uM relative to control.
Chain of D(2) dopamine receptor (Homo sapiens) (P14416 whole entry): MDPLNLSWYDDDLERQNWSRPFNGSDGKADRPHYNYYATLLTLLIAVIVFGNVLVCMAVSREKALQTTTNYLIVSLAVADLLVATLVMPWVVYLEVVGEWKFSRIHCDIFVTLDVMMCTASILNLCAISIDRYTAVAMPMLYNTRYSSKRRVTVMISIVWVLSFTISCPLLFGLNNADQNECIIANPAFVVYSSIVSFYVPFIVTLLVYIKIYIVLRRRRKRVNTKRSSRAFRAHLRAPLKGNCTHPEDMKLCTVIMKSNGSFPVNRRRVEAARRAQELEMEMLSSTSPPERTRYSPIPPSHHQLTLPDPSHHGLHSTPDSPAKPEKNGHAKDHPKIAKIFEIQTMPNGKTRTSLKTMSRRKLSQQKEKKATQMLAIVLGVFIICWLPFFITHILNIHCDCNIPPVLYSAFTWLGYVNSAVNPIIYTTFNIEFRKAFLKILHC
The target of data set [8] is Sodium-dependent serotonin transporter (Homo sapiens) (UniProt P31645). The data set can be described thus: Binding affinity to human 5-HT transporter assessed as protein-compound complex at 10 uM relative to control.
Chain of Sodium-dependent serotonin transporter (Homo sapiens) (P31645 whole entry, looked up): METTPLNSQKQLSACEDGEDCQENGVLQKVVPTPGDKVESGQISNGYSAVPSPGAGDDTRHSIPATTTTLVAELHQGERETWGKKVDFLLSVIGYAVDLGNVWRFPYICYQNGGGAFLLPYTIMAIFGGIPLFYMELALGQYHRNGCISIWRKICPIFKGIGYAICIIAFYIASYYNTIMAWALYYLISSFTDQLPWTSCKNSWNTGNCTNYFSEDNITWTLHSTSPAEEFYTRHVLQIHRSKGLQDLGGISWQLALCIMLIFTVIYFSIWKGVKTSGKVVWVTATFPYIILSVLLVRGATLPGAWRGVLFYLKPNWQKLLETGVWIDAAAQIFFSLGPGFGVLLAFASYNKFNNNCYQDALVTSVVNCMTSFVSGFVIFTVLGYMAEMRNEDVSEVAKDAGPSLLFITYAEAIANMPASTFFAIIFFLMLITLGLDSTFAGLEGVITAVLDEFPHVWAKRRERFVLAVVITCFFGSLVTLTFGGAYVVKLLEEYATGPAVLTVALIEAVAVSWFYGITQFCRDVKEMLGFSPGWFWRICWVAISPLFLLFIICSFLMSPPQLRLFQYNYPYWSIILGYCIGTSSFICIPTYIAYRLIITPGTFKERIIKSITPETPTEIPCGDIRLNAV
Data set [9] addresses D(1A) dopamine receptor (Homo sapiens) (UniProt P21728). The data set can be described thus: Binding affinity to human dopamine D1 receptor assessed as protein-compound complex at 10 uM relative to control.
Data set [10] is filed under the species Homo sapiens. Briefly: Binding affinity to L-type calcium channel verapamil binding site (unknown origin) assessed as protein-compound complex at 10 uM relative to control.
Data set [11] concerns the target 5-hydroxytryptamine receptor 2A (Homo sapiens) (UniProt P28223). Briefly: Binding affinity to human 5HT-2A receptor assessed as protein-compound complex at 10 uM relative to control.
The test system of data set [12] is Mus musculus. Briefly: Reduction in serum IL-13 level in C57/Bl6 mouse at 100 mg/kg, ip administered for 1 hr followed by anti-CD3 treatment measured after 1.5 hrs relative to vehicle-treated control. It is filed as functional. Also on record: scale not given: the % may be the effect or the level left. As to conditions: route intraperitoneal.
The test system of data set [13] is Mus musculus. Briefly: Reduction in serum IL-13 level in C57/Bl6 mouse at 30 mg/kg, ip administered for 1 hr followed by anti-CD3 treatment measured after 1.5 hrs relative to vehicle-treated control. It is filed as functional. Set-up: scale not given: the % may be the effect or the level left. Particulars: route intraperitoneal.
Data set [14] deals with Mus musculus. The data set can be described thus: Reduction in serum IL-13 level in C57/Bl6 mouse at 200 mg/kg, ip administered for 1 hr followed by anti-CD3 treatment measured after 1.5 hrs relative to vehicle-treated control. It is filed as functional. Also on record: scale not given: the % may be the effect or the level left. Particulars: route intraperitoneal.
In data set [15] the test system is Mus musculus. The data set can be described thus: Reduction in serum IL-2 level in C57/Bl6 mouse at 200 mg/kg, ip administered for 1 hr followed by anti-CD3 treatment measured after 1.5 hrs relative to vehicle-treated control. In kind it is functional. As to conditions: route intraperitoneal.
A short description of data set [16]: Plasma concentration in C57/Bl6 mouse at 200 mg/kg, ip administered for 1 hr followed by anti-CD3 treatment measured at 2.5 hrs. In kind it is ADME, organism-based. Set-up: dose 200 mg/kg, route intraperitoneal.
Data set [17] concerns Mus musculus. Briefly: Reduction in serum IL-2 level in ip dosed C57/Bl6 mouse administered for 1 hr followed by anti-CD3 treatment measured after 1.5 hrs. It is filed as functional, organism-based.
Data set [18] deals with Mus musculus. The data set can be described thus: Reduction in serum IL-2 level in C57/Bl6 mouse at 30 mg/kg, ip administered for 1 hr followed by anti-CD3 treatment measured after 1.5 hrs relative to vehicle-treated control. In kind it is functional. Also on record: scale not given: the % may be the effect or the level left. Particulars: route intraperitoneal.
In data set [19] the test system is Mus musculus. The data set can be described thus: Reduction in serum IL-2 level in C57/Bl6 mouse at 100 mg/kg, ip administered for 1 hr followed by anti-CD3 treatment measured after 1.5 hrs relative to vehicle-treated control. Set-up: scale not given: the % may be the effect or the level left. As to conditions: route intraperitoneal. It is filed as functional.

Chain of 5-hydroxytryptamine receptor 2A (Homo sapiens) (P28223 whole entry): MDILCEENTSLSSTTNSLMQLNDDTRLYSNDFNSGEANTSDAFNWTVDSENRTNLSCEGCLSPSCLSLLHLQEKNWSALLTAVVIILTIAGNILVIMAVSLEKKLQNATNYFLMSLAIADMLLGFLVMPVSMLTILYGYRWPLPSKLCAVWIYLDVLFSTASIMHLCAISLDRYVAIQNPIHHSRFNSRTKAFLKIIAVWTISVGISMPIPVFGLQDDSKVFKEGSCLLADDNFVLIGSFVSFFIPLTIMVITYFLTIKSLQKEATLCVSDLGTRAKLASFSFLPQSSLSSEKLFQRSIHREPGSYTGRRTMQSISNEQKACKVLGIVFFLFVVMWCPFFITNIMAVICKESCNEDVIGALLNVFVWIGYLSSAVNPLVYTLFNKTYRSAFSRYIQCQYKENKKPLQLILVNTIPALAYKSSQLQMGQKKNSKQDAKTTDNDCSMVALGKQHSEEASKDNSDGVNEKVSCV
Chain of D(1A) dopamine receptor (Homo sapiens) (P21728 whole entry): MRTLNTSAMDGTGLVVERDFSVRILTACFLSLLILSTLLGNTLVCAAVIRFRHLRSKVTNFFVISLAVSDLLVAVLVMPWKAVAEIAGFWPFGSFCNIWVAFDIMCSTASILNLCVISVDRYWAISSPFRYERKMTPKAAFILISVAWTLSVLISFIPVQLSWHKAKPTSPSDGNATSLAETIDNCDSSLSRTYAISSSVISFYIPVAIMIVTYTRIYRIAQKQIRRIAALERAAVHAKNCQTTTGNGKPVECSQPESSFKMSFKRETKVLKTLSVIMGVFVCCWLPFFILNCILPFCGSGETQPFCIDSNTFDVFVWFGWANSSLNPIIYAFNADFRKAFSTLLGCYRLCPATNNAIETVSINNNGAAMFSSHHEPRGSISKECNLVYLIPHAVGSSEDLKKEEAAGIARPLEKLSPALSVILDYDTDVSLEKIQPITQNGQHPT
Description for physchem: Kinetic solubility of the compound in aqueous phosphate buffer at pH 7.4 after 24 hrs by HPLC/CLND method

The term logD denotes lipophilicity at a set pH, counting ionised and neutral species. As a reminder, the IC50 is the concentration needed to halve the response being measured. As a reminder, the kinetic solubility is the concentration staying in solution when a stock, usually in DMSO, is diluted into the medium. What is called inhibition is the share of the control response that was lost under treatment. The compound `C[C@@]12Cc3[nH]nc(C(=O)Nc4cnn([C@H](c5ccccc5)[C@H]5CCCCS5(=O)=O)c4)c3C[C@@H]1C2(F)F` returned a pH-dependent lipophilicity (logD) in [1] of 2.8. Besides, the IC50 was 12 µM in data set [2] (Homo sapiens, Jurkat) and over 100 µM in the data set on Hepatocyte. In “physchem”, this compound had a kinetic solubility at 24 h of 3.9 µM (≈ 2.01 µg/mL). In addition, the fraction unbound in [3] is 0.03. The Papp in data set [4] came to 1.5 ×10⁻⁶ cm/s. Testing at 10 µM against hERG (KCNH2) gave an inhibition of 6.8%.

Consider `CC1(C)CCc2c(C(=O)Nc3cnn([C@H](c4ccccc4)C4CCS(=O)(=O)CC4)c3)n[nH]c2C1`, for which the IC50 in data set [2] (Homo sapiens, Jurkat) was 29 µM. Besides, in “physchem”, the solubility (kinetic) at 24 h amounted to 4.3 µM (≈ 2.07 µg/mL).

The term Ki denotes a measure of affinity in units of concentration, obtained from inhibition or displacement. With `CC1(C)CCc2c(C(=O)Nc3cnn(Cc4ccccc4)c3)n[nH]c2C1`, the Ki in [5] was 1.8 µM.

Take `CC12Cc3[nH]nc(C(=O)Nc4cnn(Cc5ccccc5)c4)c3CC1C2` (stereo unspecified): in [5], the affinity, expressed as Ki, was 1.4 µM.

With `CC1(C)CCc2c(C(=O)Nc3cnn([C@H](c4ccccc4)C4CCS(=O)(=O)C4)c3)n[nH]c2C1` (stereo partly specified), the half-maximal inhibitory concentration (IC50) is 27 µM in data set [2] (Homo sapiens, Jurkat) and over 50 µM in data set [2] (jurkat).

`CC1(C)CCc2c(C(=O)Nc3cnn([C@@H](CCS(C)(=O)=O)c4ccccc4)c3)n[nH]c2C1` yielded a Ki in data set [5] of 1.8 µM. The half-inhibitory concentration (IC50) in data set [2] (Homo sapiens, Jurkat) amounted to 57 µM. The Ratio Ki in the data set listed under Homo sapiens [6] is 290.

With `CC1(C)CCc2c(C(=O)Nc3cnn([C@H](c4ccccc4)C4CCCS(=O)(=O)C4)c3)n[nH]c2C1` (stereo partly specified), the IC50 in [2] (jurkat) was 44 µM and 20 µM. The compound also gave a solubility (kinetic) at 24 h in the data set “physchem” of 11 µM (≈ 5.3 µg/mL).

Take `CN(C)CC[C@@H](c1ccccc1)n1cc(NC(=O)c2n[nH]c3c2CCC(C)(C)C3)cn1`: the Activity in data set [7] came out at 96%; in data set [8], 102%; in [9], 96%; in the data set listed under Homo sapiens [10], 88%; in data set [11], 96%. Also, in [5], the inhibition constant (Ki) was 0.34 µM. Besides, the IC50 amounted to 4.7 µM in [2] (Homo sapiens, Jurkat) and 6.2 µM with Hepatocyte. Also, on hERG (KCNH2), the inhibition at 10 µM turned out to be 88%.

In turn, `CC1(C)CCc2c(C(=O)Nc3cnn([C@@H](CS(C)(=O)=O)c4ccccc4)c3)n[nH]c2C1` yielded an inhibition constant Ki in [5] of over 2.5 µM. Besides, in data set [2] (Homo sapiens, Jurkat), the IC50 amounted to 42 µM. Besides, the solubility (kinetic) at 24 h in the data set “physchem” stood at 4.5 µM (≈ 1.99 µg/mL).

With `CC1(C)CCc2c(C(=O)Nc3cnn([C@H](c4ccccc4)C4CC[S+]([O-])CC4)c3)n[nH]c2C1` (stereo partly specified), the Activity in the data set on Mus musculus [12] is 95%; in the data set with Mus musculus [13], 62%; in the data set on Mus musculus [14], 100%; in the data set on Mus musculus [17], “Dose-dependent effect”; in the data set with Mus musculus [18] it was 55%; in the data set on Mus musculus [19] it was 90%. Also, in the data set on Mus musculus [15], the “%max” value was determined as 98%. Further, the concentration at 2.5 h in data set [16] was determined as 80 µM. The compound also had a logD in data set [1] of 3.6. The IC50 in data set [2] (Homo sapiens, Jurkat) came out at 20 µM; in data set [2] (jurkat), 30 µM; with Hepatocyte it was 83 µM. Besides, the solubility (kinetic) at 24 h in the data set “physchem” was 45 µM (≈ 21 µg/mL). The fraction unbound in data set [3] is 0.06. Further, in data set [4], the Papp was 1.9 ×10⁻⁶ cm/s. In addition, the inhibition at 10 µM on hERG (KCNH2) came to 3.6%.

As to `C[C@@]12Cc3[nH]nc(C(=O)Nc4cnn([C@H](c5ccccc5)C5CCS(=O)(=O)CC5)c4)c3C[C@@H]1C2`, the logD in data set [1] was 3.5. The IC50 in data set [2] (Homo sapiens, Jurkat) is 29 µM; with Hepatocyte it was over 100 µM. For the same compound, in the data set “physchem”, the solubility (kinetic) at 24 h came out at 6.5 µM (≈ 3.12 µg/mL). The fraction unbound in data set [3] was 0.03. The Papp in data set [4] worked out at 4.4 ×10⁻⁶ cm/s. This compound returned an inhibition at 10 µM against hERG (KCNH2) of 34%.

In the case of `CC1(C)CCc2c(C(=O)Nc3cnn([C@H](c4ccccc4)C4CCCCS4(=O)=O)c3)n[nH]c2C1` (stereo partly specified), the IC50 was over 50 µM in [2] (Homo sapiens, Jurkat) and 33 µM in data set [2] (jurkat). In addition, the solubility (kinetic) at 24 h in “physchem” was 10 µM (≈ 4.82 µg/mL).
